This is an account of results in PMC11934087, “Rational Design of Stapled Covalent Peptide Modifiers of Oncoprotein E6 from Human Papillomavirus” (ACS Chemical Biology, 2025).

Data set [1] can be described thus: Glutathione reactivity assay (HPLC time course). Conditions: 100 μM peptide, glutathione 10 equiv (1 mM), 50 mM Tris, 200 mM NaCl, 1% DMSO, 37 °C; HPLC 280 nm, GSH adduct peak area; n = 3. The method, then:
To evaluate the reactivity toward off-target thiols, the acrylamide, bromoacetamide, and chloroacetamide covalent peptides were exposed to glutathione (10 equiv) in an HPLC time course assay over 96 h (Figure 4A). Here, a set of nonfluorescent peptides (2b, 3b, and 4b) were synthesized with an N-terminal tryptophan for quantification through absorbance measurements. Glutathione is the most abundant thiol in human cells,[40] and time point measurements were obtained by quenching reactions with cold acetonitrile containing TFA (0.1%) and 5-carboxyfluorescein as an internal standard.
Covalent peptides (100 μM) were diluted from 10 mM DMSO stock solutions (1% final DMSO content) and incubated in buffer (500 μL total volume; 50 mM Tris, 200 mM NaCl) with glutathione (10 equiv, 1 mM) at 37 °C. To quench the reaction, 10 μL of the reaction mixture was added to 100 μL of cold acetonitrile containing 0.1% TFA [v/v] and 10 μM fluorescein, included as an internal standard. Reaction mixtures were first analyzed by LCMS after 1 h of incubation to assign the glutathione adduct peak by comparison to mixtures quenched immediately following peptide addition. […] The AUC of the reacted covalent peptide was normalized to the AUC of the fluorescein standard. These values were plotted and fitted with nonlinear regression using GraphPad Prism software.

Data set [2] is described as follows: Off-target reactivity with DTT. The following applies: DTT 1 mM. The class given is physicochemical.
Data set [3] deals with T1, GST-E6 (GST-tagged HPV16 E6 protein) (Human papillomavirus type 16, UniProt P03126).
T1 construct: host or cells: E. coli BL21
Put plainly: Noncompetitive fluorescence polarization (FP) binding assay. Also noted: species or system Human Papillomavirus (HPV-16). The protocol: An N-terminal carboxyfluorescein was included for FP analysis of binding affinity for both the natural backbone and the stapled peptides.
For noncompetitive FP experiments, varying concentrations of GST-E6 protein (38 μM; 10 point 2-fold serial dilution) were incubated with 30 nM fluorescently labeled peptides in buffer (10 μL total volume; 50 mM Tris, 200 mM NaCl, 1 mM DTT, 0.1% [v/v] Trition X-100) in black 384-well plates. For competitive FP experiments, 100 nM GST-E6 was incubated with 30 nM fluorescently labeled noncovalent peptide and varying concentrations (20 μM; 3-fold serial dilution) of covalent peptide in buffer (20 μL) with a final DMSO content of 0.5% [v/v]. Negative control (polarization reference; 30 nM fluorescent peptide, no protein) and blank reference (buffer alone) were included in triplicate for G-factor calibration. Sample plates were centrifuged (1 min, 500g) and incubated for 30 min at RT. Following incubation, FP at equilibrium was measured on a Tecan M1000 microplate reader (ex = 470 nm, em = 525; gain optimized, 200 flashes, 300 ms settle time, G-factor reference value 30 mP). Measured polarizations were fitted to a sigmoidal dose–response curve using GraphPad Prism software to generate KD values.

Data set [4] can be described thus: in vitro. Conditions: bovine α-chymotrypsin (50 nM), pH 7.5. The method, then:
(§1) Chymotrypsin was chosen due to its substrate selectivity for peptides containing hydrophobic side chains, including leucine, making the LxxLL motif a well-suited substrate for proteolytic cleavage by this protease.[54]
(§2) For each time point, a 50 μL aliquot was removed from the reaction mixture and quenched with 40 μL of 0.5% [v/v] trifluoroacetic acid in acetonitrile. Quenched samples were subsequently analyzed by analytical reverse-phase HPLC, and the remaining undigested peptide was quantified by integration of AUC. A plot of percent peptide remaining vs time was fit to a one-phase exponential decay to calculate half-life using GraphPad Prism software.

For data set [5], the target named is bovine α-chymotrypsin (Bos taurus, UniProt P00766). Put plainly: in vitro. Conditions: 50 μM peptide, 50 nM bovine α-chymotrypsin, pH 7.5, room temp, 4 h; HPLC. The protocol: as §1, §2
Data set [6] can be described thus: Circular dichroism spectroscopy, percent helicity. The following applies: 50 μM peptide, 10 mM phosphate buffer pH 7.2, 0.5% DMSO, 20 °C. Type of data set: physicochemical. The method, then: To determine the secondary structure of peptides 1–11, CD was measured in an aqueous solution. […] The molar ellipticity ([θ]) at 222 nm was used to estimate the percent helicity of peptides in aqueous solutions and enable direct comparison of the helical content of peptides 1–11 (Figure 5C).[51],[52]
CD measurements were acquired on an Olis DSM17 CD spectrophotometer. Cells with a path length of 2 mm were used. Peptide solutions at 50 μM were prepared in 10 mM phosphate buffer (500 μL; pH = 7.2) containing 0.5% of DMSO, and exact concentrations were determined using fluorescein absorbance at 494 nm and a molar extinction coefficient of 82,000 cm^–1 M^–1.[59] Blank solutions of buffer without peptide were prepared for background subtraction. Scans were performed at 20 °C from 200 to 260 nm with increments of 1 nm, bandwidth of 2 nm, and a 5 s integration time. […] Helical content for peptides was calculated using a previously described method[52] that assumes that the peptide population only exists in two states, helical and random coil, and that the ellipticity contribution from the random coil population is negligible at 222 nm. […] This was calculated via the equation [θobs]222 = 43,000(1 – [x/n]), where x is the factor accounting for end effects, for which 2.5 was used, and n is the number of residues.[52]
Background: CD spectra are sensitive to the conformation of chiral molecules.

Where a SMILES comes first, the peptide text is derived from it. Bridges are numbered along the chain shown (N, C = ends). [ ]: non-standard residue; d: D form. The star is where a group is joined. 5FAM = O=C1OC2(c3ccc(O)cc3Oc3cc(O)ccc32)c2ccc(C(=O)*)cc21; S5 = C=CCCC[C@](C)(N)C(=O)O; Dap = NC[C@H](N)C(=O)O; BrAc = O=C(CBr)*; βAla = NCCC(=O)O Some results are limits rather than exact numbers.

T1 sequence (P03126 whole entry): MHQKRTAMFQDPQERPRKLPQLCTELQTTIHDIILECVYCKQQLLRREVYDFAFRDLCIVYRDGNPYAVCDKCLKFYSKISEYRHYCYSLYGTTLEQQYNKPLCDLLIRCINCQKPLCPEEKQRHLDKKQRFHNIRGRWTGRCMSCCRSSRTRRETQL

Turning to `CC(=O)N[C@@H](Cc1c[nH]c2ccccc12)C(=O)NCCC(=O)N[C@@H](C)C(=O)N[C@@H](C)C(=O)N[C@@H](C)C(=O)N[C@@H](CCC(=O)O)C(=O)N[C@@H](CC(C)C)C(=O)N[C@H](C(=O)N[C@@H](CC(C)C)C(=O)N[C@@H](CCC(N)=O)C(=O)N[C@@H](CCC(=O)O)C(=O)N[C@@H](CC(C)C)C(=O)N[C@@H](CC(C)C)C(=O)N[C@@H](CNC(=O)CBr)C(N)=O)[C@@H](C)O` [3b] (Ac-W[βAla]AAAELTLQELL[Dap](BrAc)-NH2), in data set [1], the “t1/2 of reaction with glutathione” value stood at 8.5 min. The “half-life of off-target reaction with DTT” value in data set [2] came out at 2.1 min.

In data set [3], `CC(C)C[C@H](NC(=O)[C@H](CC(C)C)NC(=O)[C@H](CCC(=O)O)NC(=O)[C@H](CCC(N)=O)NC(=O)[C@H](CC(C)C)NC(=O)[C@@H](NC(=O)[C@H](CC(C)C)NC(=O)[C@H](CCC(=O)O)NC(=O)[C@H](C)NC(=O)[C@H](C)NC(=O)[C@H](C)NC(=O)CCNC(=O)c1ccc2c(c1)C(=O)OC21c2ccc(O)cc2Oc2cc(O)ccc21)[C@@H](C)O)C(=O)NCC(N)=O` [compound 1] ({5FAM-βAla}-AAAELTLQELLG-NH2) displayed an EC50 of 2.59 µM and a Kd of 2.59 µM. Besides, the half-life at 50 μM in data set [4] was 47 min. Further, the “degradation by chymotrypsin within 4 h” value in data set [5] was “complete degradation”.

Compound `CC(C)C[C@H](NC(=O)[C@H](CC(C)C)NC(=O)[C@H](CCC(=O)O)NC(=O)[C@]1(C)CCCC=CCCC[C@](C)(NC(=O)[C@H](C)NC(=O)[C@H](C)NC(=O)[C@H](C)NC(=O)CCNC(=O)c2ccc3c(c2)C(=O)OC32c3ccc(O)cc3Oc3cc(O)ccc32)C(=O)N[C@@H](CC(C)C)C(=O)N[C@@H]([C@@H](C)O)C(=O)N[C@@H](CC(C)C)C(=O)N1)C(=O)NCC(N)=O` [compound 6] ({5FAM-βAla}-AAA[S5]LTL[S5]ELLG-NH2; staple 4-8) had a Kd in data set [3] of at least 38 µM. In addition, in data set [6], the “Percent helicity from molar ellipticity at 222 nm (CD)” value is listed as 22%.

The EC50 is the concentration that produces a half-maximal response. What is called Kd is a measure of binding affinity in units of concentration. One may read the half-life as the time in which the quantity being followed falls by half.
